How the values were obtained:
[1] = biological target: T1, Serine/threonine-protein kinase A-Raf (Homo sapiens, UniProt P10398); assay: Inhibition of A-raf (unknown origin)
T1 sequence (P10398 whole entry): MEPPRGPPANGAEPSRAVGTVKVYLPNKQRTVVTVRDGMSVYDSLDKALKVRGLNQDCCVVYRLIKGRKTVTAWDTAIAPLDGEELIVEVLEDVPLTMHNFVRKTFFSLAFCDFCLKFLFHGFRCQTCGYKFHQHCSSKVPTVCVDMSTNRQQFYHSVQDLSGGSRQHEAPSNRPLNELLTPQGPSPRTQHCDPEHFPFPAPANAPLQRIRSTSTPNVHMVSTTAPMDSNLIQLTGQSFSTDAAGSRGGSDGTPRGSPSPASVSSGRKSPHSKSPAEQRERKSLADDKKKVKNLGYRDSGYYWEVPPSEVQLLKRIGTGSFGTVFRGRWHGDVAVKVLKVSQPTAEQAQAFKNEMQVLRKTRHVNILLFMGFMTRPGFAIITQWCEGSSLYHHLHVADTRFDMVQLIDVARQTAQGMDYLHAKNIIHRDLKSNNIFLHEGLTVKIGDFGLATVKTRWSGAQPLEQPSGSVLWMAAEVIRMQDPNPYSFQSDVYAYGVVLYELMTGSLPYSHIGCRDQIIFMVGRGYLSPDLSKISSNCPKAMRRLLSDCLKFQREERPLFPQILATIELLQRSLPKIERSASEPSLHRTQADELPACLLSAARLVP

[2] = biological target: RAF proto-oncogene serine/threonine-protein kinase (Homo sapiens, UniProt P04049); assay: Inhibition of human C-raf using biotin-MEKl substrate incubated for 1 hr
Chain of RAF proto-oncogene serine/threonine-protein kinase (P04049 whole entry): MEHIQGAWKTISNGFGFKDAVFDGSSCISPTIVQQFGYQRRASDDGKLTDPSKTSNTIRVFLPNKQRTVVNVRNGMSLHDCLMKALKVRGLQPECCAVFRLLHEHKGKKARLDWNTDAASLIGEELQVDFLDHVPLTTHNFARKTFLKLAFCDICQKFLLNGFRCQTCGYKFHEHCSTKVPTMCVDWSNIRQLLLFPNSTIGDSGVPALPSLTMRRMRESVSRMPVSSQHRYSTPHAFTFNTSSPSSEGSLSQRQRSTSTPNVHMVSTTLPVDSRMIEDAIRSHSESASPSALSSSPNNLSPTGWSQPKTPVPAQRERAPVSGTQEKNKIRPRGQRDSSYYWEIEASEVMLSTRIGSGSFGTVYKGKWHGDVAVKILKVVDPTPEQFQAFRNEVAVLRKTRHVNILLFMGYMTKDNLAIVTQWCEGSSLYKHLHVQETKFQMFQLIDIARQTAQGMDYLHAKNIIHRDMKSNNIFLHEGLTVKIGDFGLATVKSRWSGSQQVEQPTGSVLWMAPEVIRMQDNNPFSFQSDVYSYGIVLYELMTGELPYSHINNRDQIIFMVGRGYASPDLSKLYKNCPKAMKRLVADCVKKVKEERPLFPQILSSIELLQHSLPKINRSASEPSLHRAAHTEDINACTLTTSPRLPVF

[3] = biological target: Serine/threonine-protein kinase B-raf (Homo sapiens, UniProt P15056); assay: Inhibition of N-terminal GST-tagged human recombinant B-Raf (416 to end residues) using biotin-MEKl substrate incubated for 1 hr
Chain of Serine/threonine-protein kinase B-raf (P15056 whole entry): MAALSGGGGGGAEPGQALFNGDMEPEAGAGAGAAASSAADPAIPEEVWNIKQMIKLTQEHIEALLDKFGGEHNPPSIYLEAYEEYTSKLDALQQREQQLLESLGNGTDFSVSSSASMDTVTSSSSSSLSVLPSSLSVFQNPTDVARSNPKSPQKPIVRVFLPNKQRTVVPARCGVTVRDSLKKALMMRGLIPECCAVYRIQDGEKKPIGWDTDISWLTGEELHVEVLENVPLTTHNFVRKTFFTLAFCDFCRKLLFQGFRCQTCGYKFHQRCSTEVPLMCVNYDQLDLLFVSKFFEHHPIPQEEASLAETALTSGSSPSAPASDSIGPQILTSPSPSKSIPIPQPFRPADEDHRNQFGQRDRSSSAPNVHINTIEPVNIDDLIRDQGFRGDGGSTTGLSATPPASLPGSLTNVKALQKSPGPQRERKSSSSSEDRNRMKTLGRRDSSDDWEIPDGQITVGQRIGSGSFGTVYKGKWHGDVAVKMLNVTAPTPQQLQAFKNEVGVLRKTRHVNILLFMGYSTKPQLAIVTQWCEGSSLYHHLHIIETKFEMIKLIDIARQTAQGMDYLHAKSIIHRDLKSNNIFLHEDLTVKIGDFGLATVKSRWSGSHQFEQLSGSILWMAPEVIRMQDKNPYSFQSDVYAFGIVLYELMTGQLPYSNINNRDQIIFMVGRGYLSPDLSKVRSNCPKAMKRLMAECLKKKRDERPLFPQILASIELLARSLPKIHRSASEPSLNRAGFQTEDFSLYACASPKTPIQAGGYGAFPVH

[4] = biological target: Vascular endothelial growth factor receptor 2 (Homo sapiens, UniProt P35968); assay: Inhibition of KDR (unknown origin)
Chain of Vascular endothelial growth factor receptor 2 (P35968 whole entry): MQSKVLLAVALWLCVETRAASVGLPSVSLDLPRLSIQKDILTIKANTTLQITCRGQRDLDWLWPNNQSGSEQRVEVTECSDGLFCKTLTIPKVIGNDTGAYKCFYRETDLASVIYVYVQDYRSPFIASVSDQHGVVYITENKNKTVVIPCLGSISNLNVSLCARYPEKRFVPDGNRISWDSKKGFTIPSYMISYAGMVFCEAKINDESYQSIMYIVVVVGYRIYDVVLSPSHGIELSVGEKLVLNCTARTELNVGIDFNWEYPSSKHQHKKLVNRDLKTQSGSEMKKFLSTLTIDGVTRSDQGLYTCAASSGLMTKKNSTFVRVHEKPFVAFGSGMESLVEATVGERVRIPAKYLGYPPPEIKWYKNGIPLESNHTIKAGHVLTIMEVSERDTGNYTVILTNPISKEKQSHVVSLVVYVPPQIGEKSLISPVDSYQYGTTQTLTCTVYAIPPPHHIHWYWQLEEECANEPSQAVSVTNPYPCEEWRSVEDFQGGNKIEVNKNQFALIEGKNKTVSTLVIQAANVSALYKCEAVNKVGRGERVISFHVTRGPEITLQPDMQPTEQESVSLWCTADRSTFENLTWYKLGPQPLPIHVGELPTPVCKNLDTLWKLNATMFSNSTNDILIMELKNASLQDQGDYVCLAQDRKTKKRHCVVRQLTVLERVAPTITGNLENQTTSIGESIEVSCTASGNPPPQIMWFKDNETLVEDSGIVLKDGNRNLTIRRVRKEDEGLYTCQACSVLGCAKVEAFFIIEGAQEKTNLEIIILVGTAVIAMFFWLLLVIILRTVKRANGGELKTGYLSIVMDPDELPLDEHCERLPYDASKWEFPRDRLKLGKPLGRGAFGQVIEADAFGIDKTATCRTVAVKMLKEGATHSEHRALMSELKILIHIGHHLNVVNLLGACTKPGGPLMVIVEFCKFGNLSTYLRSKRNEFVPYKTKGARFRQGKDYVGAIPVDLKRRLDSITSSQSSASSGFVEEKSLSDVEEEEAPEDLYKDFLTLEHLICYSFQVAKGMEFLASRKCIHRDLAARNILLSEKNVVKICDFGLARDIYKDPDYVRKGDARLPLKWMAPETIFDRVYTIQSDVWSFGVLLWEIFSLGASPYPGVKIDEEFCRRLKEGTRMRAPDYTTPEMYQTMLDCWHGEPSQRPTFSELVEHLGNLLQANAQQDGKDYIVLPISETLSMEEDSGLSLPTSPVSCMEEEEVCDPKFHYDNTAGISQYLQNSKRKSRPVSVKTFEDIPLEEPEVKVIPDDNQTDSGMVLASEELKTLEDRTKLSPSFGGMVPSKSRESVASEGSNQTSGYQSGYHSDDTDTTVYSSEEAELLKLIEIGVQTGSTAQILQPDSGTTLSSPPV

[5] = biological target: Proto-oncogene tyrosine-protein kinase Src (Homo sapiens, UniProt P12931); assay: Inhibition of Src (unknown origin) expressed in Escherichia coli using biotin-(E4Y)3 substrate
Chain of Proto-oncogene tyrosine-protein kinase Src (P12931 2-536 limits assumed): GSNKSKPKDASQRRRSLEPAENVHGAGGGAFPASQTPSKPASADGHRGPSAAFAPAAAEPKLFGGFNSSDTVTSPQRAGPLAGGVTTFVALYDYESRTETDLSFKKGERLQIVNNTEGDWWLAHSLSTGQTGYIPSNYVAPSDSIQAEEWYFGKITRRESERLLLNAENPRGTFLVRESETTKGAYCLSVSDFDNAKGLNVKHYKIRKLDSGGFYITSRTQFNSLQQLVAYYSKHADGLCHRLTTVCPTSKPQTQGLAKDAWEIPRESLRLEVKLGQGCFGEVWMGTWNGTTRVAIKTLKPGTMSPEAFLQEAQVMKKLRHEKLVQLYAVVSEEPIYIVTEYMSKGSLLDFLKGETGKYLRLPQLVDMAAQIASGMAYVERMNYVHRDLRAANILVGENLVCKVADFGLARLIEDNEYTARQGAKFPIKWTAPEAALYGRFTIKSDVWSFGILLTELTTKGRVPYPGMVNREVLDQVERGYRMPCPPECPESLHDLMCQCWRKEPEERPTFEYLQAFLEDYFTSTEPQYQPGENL

SMILES	IC50 [1] [µM]	IC50 [2] [µM]	IC50 [3] [µM]	IC50 [4] [µM]	IC50 [5] [µM]
CCCS(=O)(=O)Nc1ccc(F)c(C(=O)c2c[nH]c3ncc(Br)nc23)c1F	≤ 10	≤ 10			
CCCS(=O)(=O)Nc1ccc(F)c(C(=O)c2c[nH]c3ncc(-c4cnc(OC)nc4)nc23)c1F	≤ 10	≤ 10	≤ 10		
O=C(c1c(F)ccc(NS(=O)(=O)c2ccc(C(F)(F)F)cc2)c1F)c1c[nH]c2nccnc12	≤ 10	≤ 10			

The remaining lines, values ahead:

IC50 [1] [µM]	IC50 [2] [µM]	IC50 [3] [µM]	IC50 [4] [µM]	IC50 [5] [µM]	SMILES
≤ 10	≤ 10	≤ 10			O=C(c1cccc(NS(=O)(=O)c2ccc(C(F)(F)F)cc2)c1F)c1c[nH]c2nccnc12
			≤ 10	≤ 10	CCCS(=O)(=O)Nc1ccc(F)c(C(=O)c2c[nH]c3ncc(-c4cnn(C)c4)nc23)c1F
≤ 10	≤ 10	≤ 10			CCCS(=O)(=O)Nc1ccc(F)c(C(=O)c2c[nH]c3nccnc23)c1F
				≤ 10	CCCS(=O)(=O)Nc1ccc(F)c(C(=O)c2c[nH]c3ncc(C#N)nc23)c1F
